Patent publication US10130830B2, “Preservative systems comprising cationic surfactants” (Laboratorios Miret, S.A., priority 2005, dated 2018)
Several values for one entry are separate records, joined by “and”; a condition that tells them apart may be missing. Equal values may be shown once.

Assays:
aerobic total count [1] = experiment: Preservative action in soaked chickpeas, aerobic total count; format: cell-based; conditions: Example 13, soaked chickpeas, LAE 0.2 g/kg in soaking water, mean of triplicate
Method: (§1) (4) Determination of Preservative Action in Soaked Chick-peas.
(§2) Chickpeas are the principal ingredients in a lot of ready-to-eat meals. Before cooking them, chickpeas have to be soaked in water at room temperature for 24 hours. During this period, fermentation processes may occur and therefore, chickpeas would not be suitable for eating. The soaking process cannot be made at refrigeration temperatures, because the structure of the chickpeas could be damaged.
(§3) • 1. Chickpeas were soaked in water for 24 hours at 30° C. and 50% HR (in treated samples preservative was added at this point); and • 2. after 24 hours the chickpeas were strained. Analysis • Samples were analysed (aerobic total count and concentration of the cationic surfactant) by triplicate for 24 hours. • Aerobic total count was analysed by stomaching 25 g of chickpeas in 225 g of buffered peptone water. Dilutions were made in buffered peptone water. Tryptone Soya Agar was harvested with each dilution and incubated at 35° C. for 48 hours. • Average values in log cfu/g of three samples per treatment and day of analysis were calculated. • LAE was analysed by HPLC using an internally validated method.

Moulds = experiment: Preservative action in cosmetic products (Antimicrobial Effectiveness Testing USP 24th Edition), moulds; format: cell-based, Aspergillus niger
Description: (§4) (1) Determination of Preservative Action in Cosmetic Products. […] This assay consists of the contamination of the protecting formulations with an inoculum mixture of 10^8 cfu/ml concentration, for each of the micro-organisms, and the determination of the number of viable cells in time. This inoculum mixture is composed of the following microorganisms: [table] The cosmetic composition to be analysed is divided into sterile containers with 50 g of product for each flask. Each container is inoculated with 0.5 ml of inoculum (10^8 cfu/ml). The target concentration is 10^6 cfu/ml, approximately. All the containers are kept at a temperature between 20-25° C. and are protected from light. The level of the microbial contamination is checked at 0 hours, 7 days, 14 days and 28 days. The number of colonies is evaluated by dilution in buffer peptone with the appropriate neutraliser agent of the preservative. The culture media used for counting the microorganisms are: […] (2) Determination of Preservative Action in Chicken Breast. Process of Preparation • 1. Fresh chicken breast was diced to pieces • 2. Brine (8.70% sodium chloride and 4.35% tripolyphosphate in water) was added to the fresh chicken in an amount of 11.5 g brine per 88.5 g meat in the control preparation and 11.5 g brine and 88.4 g meat in the preparations treated with preservative. • 3. Brine and meat were mixed during 15 minutes, in the preparations treated with preservative the preservative was added after 14 minutes in an amount of 0.2 g/kg. • 4. Vacuum refrigerate tumbling was made during 30 minutes. • 5. Samples were vacuum-packed in sterile bags and they were cooked at 85° C. for 30 minutes. • 6. The cooked chicken was refrigerated at 4° C. • 7. The cooked chicken was diced in irregular shapes. • 8. Then, the nuggets were stored at 10° C. in sterile vacuum-packed bags. Analysis

aerobic total count [2] = experiment: Preservative action in bratwurst sausage, aerobic total count; format: cell-based; conditions: Example 11, bratwurst sausage, LAE 0.2 g/kg
Method: (3) Determination of Preservative Action in Bratwurst Sausage.
The ingredients for all samples were : minced pork back, underbelly, spices, salt and additives (milk protein, diphosphate, antioxidant (E-300) and flavour enhance (E-621)).
1. On the cutter the minced pork back meat was ground and the ingredients were added in this order: the additives (except the preservative system), the underbelly, the spices and the preservative system (such as the cationic surfactant alone or in combination with other products). Ice was also added for controlling the temperature (maximum 5° C.) of the meat. The mixing time was 12 minutes.
2. The mass was vacuum mixed (92%) for 1 minute.
3. The mixture was stuffed into natural casings. The casings were previously soaked in a salted water solution for 30 minutes.
4. The bratwurst sausages were put in a cooking trolley. Cooking took place in a oven at 80° C. for 1 hour.
5. After cooking, the bratwurst sausages were sprayed with cool water for 5 minutes and put in a cold-storage room (0-5° C., 24 hours).
6. The next day, bratwurst sausages were packed (each packed contained five sausages) and pasteurised at 80° C. for 30 minutes and then. After, they were soaked in cool water for 30 minutes.
7. Finally, the bratwurst sausages were labelled and stored at 5° C. for 90 days.
Samples were analysed (aerobic total count) for up to 90 days. Aerobic total count was analysed by stomaching 25 g of sausage in 225 g of buffered peptone water. Dilutions were made in buffered peptone water. Tryptone Soya Agar was harvested with each dilution and incubated at 35° C. for 48 hours.
Average values in log cfu/g of three samples per treatment and day of analysis were calculated.

[3] = Concentration of LAE in soaked chickpeas (HPLC); format: physicochemical; conditions: Example 13, soaked chickpeas; for Concentration of LAE (HPLC method) expressed as % of initial dose, mean / Concentration of LAE (HPLC method) expressed as % of initial dose: LAE 0.2 g/kg in soaking water; for Concentration of LAE (HPLC method) expressed as % of initial dose, mean: mean of triplicate; for Concentration of LAE (HPLC method) expressed as % of initial dose: samples 1-3, monohydrochloride
Method: as §1, §2, §3

[4] = test system: inoculated microorganisms; experiment: Preservative action in cosmetic products, overall outcome against the inoculum mixture; format: cell-based; conditions: Example 17, oil in water emulsion with an ionic emulsifier, 0.20 g of LAE/kg
Description: as §4, with “Brine and meat were mixed during 15 minutes, in the preparations treated with preservative the preservative was added after 14 minutes in an amount of 0.2 g/kg. • 4. Vacuum refrigerate tumbling was made during 30 minutes. • 5. Samples were vacuum-packed in sterile bags and they were cooked at 85° C. for 30 minutes. • 6. The cooked chicken was refrigerated at 4° C. • 7. The cooked chicken was diced in irregular shapes. • 8. Then, the nuggets were stored at 10° C. in sterile vacuum-packed bags. Analysis” left out

Structure (SMILES): CCCCCCCCCCCC(=O)N[C@@H](CCCN=C(N)N)C(=O)OCC.Cl [LAE, ethyl ester of the lauramide of the arginine monohydrochloride]
- aerobic total count, mean (aerobic total count [1]; 0 hours): 2.0 log cfu/g
- aerobic total count, mean (aerobic total count [1]; 4 hours): 2.0 log cfu/g
- aerobic total count, mean (aerobic total count [1]; 8 hours): 2.5 log cfu/g
- aerobic total count, mean (aerobic total count [1]; 16 hours): 3.8 log cfu/g
- Moulds count (Moulds; Example 10, oil in water emulsion with non-ionic surfactant, 0.2 g/kg, 0 days): 4.3 log cfu/g
- Moulds count (Moulds; Example 10, oil in water emulsion with non-ionic surfactant, 0.2 g/kg, 7 days): <2.0 log cfu/g
- Moulds count (Moulds; Example 10, oil in water emulsion with non-ionic surfactant, 0.2 g/kg, 14 days): <2.0 log cfu/g
- Moulds count (Moulds; Example 12, bath gel, LAE 0.2 g/kg, 0 days): 4.5 log cfu/g
- Moulds count (Moulds; Example 12, bath gel, LAE 0.2 g/kg, 7 days): 2.3 log cfu/g
- Moulds count (Moulds; Example 12, bath gel, LAE 0.2 g/kg, 14 days): <2.0 log cfu/g
- Moulds count (Moulds; Example 15, bath gel, LAE 0.2 g/kg, 0 days): 4.1 log cfu/g
- Moulds count (Moulds; Example 15, bath gel, LAE 0.2 g/kg, 7 days): <2.0 log cfu/g
- Moulds count (Moulds; Example 15, bath gel, LAE 0.2 g/kg, 14 days): <2.0 log cfu/g
- Moulds count (Moulds; Example 17, oil in water emulsion with an ionic emulsifier, 0.20 g of LAE/kg, 0 days): 4.1 log cfu/g
- Moulds count (Moulds; Example 17, oil in water emulsion with an ionic emulsifier, 0.20 g of LAE/kg, 7 days): 2.9 log cfu/g
- Moulds count (Moulds; Example 17, oil in water emulsion with an ionic emulsifier, 0.20 g of LAE/kg, 14 days): <2.0 log cfu/g
- Moulds count (Moulds; Example 19, bath gel, 0.2 g of LAE/kg, 0 days): 4.1 log cfu/g
- Moulds count (Moulds; Example 19, bath gel, 0.2 g of LAE/kg, 7 days): 2.0 log cfu/g
- Moulds count (Moulds; Example 19, bath gel, 0.2 g of LAE/kg, 14 days): <2.0 log cfu/g
- aerobic total count, mean (aerobic total count [2]; day 0, mean of three samples): 2.0 log cfu/g
- aerobic total count, mean (aerobic total count [2]; day 15, mean of three samples): 2.0 log cfu/g
- aerobic total count, mean (aerobic total count [2]; day 30, mean of three samples): 2.4 log cfu/g
- aerobic total count, mean (aerobic total count [2]; day 45, mean of three samples): 2.8 log cfu/g
- aerobic total count, mean (aerobic total count [2]; day 60, mean of three samples): 3.4 log cfu/g
- aerobic total count, mean (aerobic total count [2]; day 90, mean of three samples): 4.2 log cfu/g
- Concentration of LAE (HPLC method) expressed as % of initial dose, mean ([3]; 0 hours): 100 % of initial dose
- Concentration of LAE (HPLC method) expressed as % of initial dose ([3]; 0 hours): 100 % of initial dose and 101 % of initial dose
- Concentration of LAE (HPLC method) expressed as % of initial dose, mean ([3]; 4 hours): 100 % of initial dose
- Concentration of LAE (HPLC method) expressed as % of initial dose ([3]; 4 hours): 101 % of initial dose and 99 % of initial dose and 100 % of initial dose
- Concentration of LAE (HPLC method) expressed as % of initial dose, mean ([3]; 8 hours): 98 % of initial dose
- Concentration of LAE (HPLC method) expressed as % of initial dose ([3]; 8 hours): 97 % of initial dose and 98 % of initial dose and 99 % of initial dose
- Concentration of LAE (HPLC method) expressed as % of initial dose, mean ([3]; 16 hours): 95 % of initial dose
- Concentration of LAE (HPLC method) expressed as % of initial dose ([3]; 16 hours): 95 % of initial dose and 96 % of initial dose
- Concentration of LAE (HPLC method) expressed as % of initial dose, mean ([3]; 24 hours): 93 % of initial dose
- Concentration of LAE (HPLC method) expressed as % of initial dose ([3]; 24 hours): 93 % of initial dose and 92 % of initial dose and 94 % of initial dose
- hydrolysis of LAE ([3]; after 24 hours): ~10 % of the original dose
- preservation outcome [4]: effectively preserved
